In patent publication US20070128586A1, “Therapeutic, prophylactic and diagnostic agents” (priority 2003, published 2007):

How the values were obtained:
[1] = Plasma endotoxin assay (chromogenic limulus amoebocyte lysate), cirrhotic patients; assay type: in vivo, human
TNF-α = experiment: Serum TNF-α assay (Quantikine HS immunoassay), cirrhotic patients; assay type: in vivo, human; conditions: Child-Pugh B/C patients, n = 7; controls 1.7, no lactulose 3.1
sTNF RI (p55) = experiment: Serum sTNFR assay, sTNF RI (p55), cirrhotic patients; assay type: in vivo, human; conditions: Child-Pugh B/C patients, n = 7; controls 1643, no lactulose 3852
Method: (§1) Peripheral blood was drawn using pyrogen-free needles, syringes and containers (Becton-Dickinson, Singapore). Plasma and serum were separated in a refrigerated centrifuge at 4° C. and stored at −70° C. in pyrogen-free polyethylene cryotubes (Nunc, Denmark) until analysis within six weeks of collection. Whole blood was used for determination of TLR expression on peripheral blood monocytes. Serum sTNF RI (p55) and sTNF RII (p75) were measured using Quantikine HS Human sTNFR Immunoassays (R&D Systems Inc., Minneapolis, USA), according to the manufacturer's instructions.

sTNF RII (p75) = experiment: Serum sTNFR assay, sTNF RII (p75), cirrhotic patients; assay type: in vivo, human; conditions: Child-Pugh B/C patients, n = 7; controls 2438, no lactulose 5933
Method: as §1

TLR-2 = experiment: Flow cytometry for TLR-2 expression on CD14+ve peripheral blood monocytes, cirrhotic patients; assay type: in vivo, human; conditions: Child-Pugh B/C patients, n = 7; ratio of geometric mean fluorescence to mean control values
TLR-4 = experiment: Flow cytometry for TLR-4 expression on CD14+ve peripheral blood monocytes, cirrhotic patients; assay type: in vivo, human; conditions: Child-Pugh B/C patients, n = 7; ratio of geometric mean fluorescence to mean control values
From the text: Isotype matched non-binding controls were used for comparison. Ten thousand CD14^+ve cells were acquired for each sample and dead cells were gated out based on their light scatter properties on FACSCaliber flow cytometer (Becton Dickinson, USA). At least two control patients were used for standardization purposes every flow cytometry session. TLR-2 and TLR-4 values were expressed as a ratio of the geometric mean fluorescence of individual study patients to mean control values for that session.

PBMCs [2] = experiment: In vitro production of TNF-α by PBMCs stimulated with endotoxin; assay type: cell-based, human; conditions: Child-Pugh B/C patients, n = 7; endotoxin 10 ng/mL, 20 h; ratio stimulated to unstimulated cells
PBMCs [3] = experiment: In vitro production of TNF-α by PBMCs stimulated with SEB; assay type: cell-based, human; conditions: Child-Pugh B/C patients, n = 7; SEB 10 ng/mL, 20 h; ratio stimulated to unstimulated cells
HBV = HBV DNA in chronic Hepatitis B patients (Cobas Amplicor HBV Monitor Test); assay type: in vivo, Hepatitis B virus; conditions: five CHB patients; fell from >200,000 following treatment with lamivudine
Method: Eighteen non-cirrhotic patients with chronic Hepatitis B (CHB) and on-going viral replication (HBV DNA >200,000 genomes/mL, n=12 and 200-10,000 genomes/mL, n=6; Cobas Amplicor HBV Monitor (trademark) Test, USA) and 32 healthy control subjects were studied. TLR-2 and TLR-4 expression on CD14^+ve peripheral blood mononuclear cells (PBMC's) was measured by flow cytometry using anti-CD14 (Becton Dickinson) and anti-TLR-2 and anti-TLR-4 (eBioscience, USA) monoclonal antibodies. TLR expression was reassessed in five patients in whom HBV DNA fell from >200,000 to <200 genomes/mL following treatment with lamivudine. In vitro TLR-2 expression by PBMCs was measured in five control subjects at baseline and following stimulation for 20 h by partially purified recombinant HBV. […] TLR-2 expression normalised in each of the five lamivudine-treated CHB patients in whom HBV DNA became undetectable. In vitro expression of TLR-2 fell in a concentration-dependent manner following exposure to recombinant HBV.

Structure (SMILES) | Plasma endotoxin, Median ([1]; Child-Pugh B/C patients, n = 7, controls 25, no lactulose 49) | Plasma endotoxin values compared with control subjects ([1]; subgroup of Child-Pugh B and C patients treated with lactulose) | Serum TNF-α, Median (TNF-α) | Serum soluble TNF receptor I, Median (sTNF RI (p55)) | Serum soluble TNF receptor II, Median (sTNF RII (p75)) | Expression of TLR-2 on CD14+ve PBMCs, Median (TLR-2) | Expression of TLR-4 on CD14+ve PBMCs, Median (TLR-4) | In vitro production of TNF-α by PBMCs in response to endotoxin, Median (PBMCs [2]) | In vitro production of TNF-α by PBMCs in response to SEB, Median (PBMCs [3]) | HBV DNA following treatment (HBV)
OC[C@H]1O[C@@H](O[C@@H]2[C@@H](CO)OC(O)(CO)[C@H]2O)[C@H](O)[C@@H](O)[C@H]1O (mixture of isomers) [lactulose] | 13 pg/mL | not significantly different from those in control subjects | 4.2 pg/mL | 3878 pg/mL | 5440 pg/mL | 1.29 | 1.06 | 3.1 | 1.5 | 
Nc1ccn([C@@H]2CS[C@H](CO)O2)c(=O)n1 [lamivudine] |  |  |  |  |  |  |  |  |  | < 200 genomes/mL
